In publication PMC6418785, “Presenting Precision Glycomacromolecules on Gold Nanoparticles for Increased Lectin Binding” (Polymers, 2017):

What was measured:
Concanavalin A (Con A) [1] = molecular target: T1, Concanavalin A (Con A) (Canavalia ensiformis, UniProt P02866); assay: SPR inhibition competition assay, Con A binding to mannosylated sensor chip; details: for IC50: 100 nM Con A, LBB; for RIP per Carbohydrate Ligand: corrected for carbohydrate number per nanoparticle; for RIP per Glycomacromolecular Ligand: corrected for glycomacromolecule number per nanoparticle; for RIP: relative inhibitory potency based on IC50 of αMeMan on same chip (IP ≡ 1)
T1 construct: purchased LKT Laboratories (Biomol, Hamburg, Germany)
Experimental: As sensor chip a SA (streptavidin) chip from GE Healthcare Life Sciences was used. The positive (α-D-Mannose-PAA-biotin, flow cell 2) and negative (α-D-Galactose-PAA-biotin, flow cell 1) control for Con A binding were immobilized on the sensor chip surface using the standard biotin streptavidin capture method as adapted from previously established protocols. Therefore, a 4.2 µg/mL solution of both polymers was prepared in HBS-P+ buffer (pH 7.4, GE Healthcare, Uppsala, Sweden). The same buffer was used as running buffer in a flow rate of 10 µL/min. For immobilization, the immobilization wizard was used with a specified contact time of 420 s. Sodium chloride, sodium hydroxide and isopropanol solutions were prepared as specified by the manufacturer. […] After approximately 500 measurement cycles, a new SA (streptavidin) chip was used for further measurements. For immobilization, the same procedure was used as described above.
SPR inhibition competition studies were performed using the wizard template kinetics/affinity with contact times of 105 s and dissociation times of 180 s. Before the run, the system was primed with LBB (pH 7.40 ± 0.01, 10 mM Hepes, 50 mM NaCl, 1 mM CaCl2, 1 mM MnCl2) which was used as running buffer and two startup cycles were performed. The experiment was performed in multi cycle mode. For all experiments a 1 mg/mL stock solution of Con A was prepared in LBB and was shaken for 1 h. Then it was filtrated (Acrodisc® 32 mm syringe filter with a 0.1 µm Supor® membrane from Pall Corporation, Newquay, UK) and the concentration was determined spectrophotometrically. The stock solution was diluted to give a 200 nM solution of Con A. Glyco-AuNP solutions were concentrated by centrifugation (Allegra^TM 25R Centrifuge, Beckman Coulter, Brea, CA, USA, 12 h, 4500 rcf) and were resuspended in LBB to give a 20 nM stock solution. The concentration was verified by UV measurement. This glyco-AuNP stock solution was then used to prepare the dilution series in LBB. […] For N-ethylmaleimide capped glycomacromolecule 1a a dilution series with concentrations of 0, 1, 10, 20, 50, 100, 200, 500, 1000 µM and 3a a dilution series with concentrations of 0, 2, 20, 100, 200, 500, 1000, 1500, 2000 nM was prepared. For αMeMan a dilution series with concentrations of 0, 10, 100, 500, 1000, 1500, 2000, 5000 µM was prepared. As negative control, four representative concentrations of 0, 10, 1500 and 5000 µM were prepared for D-(+)-galactose.
For the experiment Con A and sample solutions were mixed in a 1:1 ratio to give half of the prepared concentrations. Each mixture was injected over both flow cells whereas the binding signal on flow cell 1 was subtracted from the response on flow cell 2. As regeneration procedure three consecutive injections of a 0.8 M solution of αMeMan in LBB with a contact time of 30 s was used. The relative response value at the beginning of the dissociation phase (20 s after the end of sample injection) for the 100 nM Con A solution with zero sample concentration was set to 100% binding. The relative response values of the Con A solutions incubated with the respective sample in serial dilutions were referred to Con A and calculated for relative binding in %. IC50 values were calculated as concentration of the sample that result in 50% inhibition of Con A binding to the mannosylated sensor chip surface. RIP (relative inhibitory potency) values are based on the IC50 value for αMeMan (IP (inhibitory potency) ≡ 1). All glyco-AuNPs, glycomacromolecules and αMeMan have been tested in three independent experiments (triplicate determination per experiment for αMeMan and glyco-AuNPs, dublicate determination per experiment for glycomacromolecules 1a and 3a).

Concanavalin A (Con A) [2] = molecular target: T1, Concanavalin A (Con A); assay: Kinetic study of aggregation behavior with Con A by DLS and UV-Vis spectroscopy; assay type: binding; details: αMeMan 60 mM added to wells or DLS cuvettes
Experimental: For the kinetic study of aggregation behavior with Con A performed by DLS and UV-Vis spectroscopy, a similar procedure as described by the group of Gibson was performed [41, 42].
For the kinetic studies using absorbance spectroscopy (Thermo Scientific, Vantaa, Finland), the stock solutions were mixed in wells of a 96-well microtiter-plate (100 µL of each solution per well). The absorbance at 400 and 700 nm was measured every minute for 30 min.
For the kinetic studies using DLS, the stock solutions were filtrated twice (Roth, Rotilabo® syringe filter, Karlsruhe, Germany, PTFE, 5.0 µm) and were pre-tempered to 20 °C. Then 750 µL of each stock solution were filled into the culture tubes and mixed. DLS measurements were performed at 20 °C and at a scattering angle of 90°. Every minute an intensity-time autocorrelation function was recorded with an acquisition time of 30 s during a period of 30 min.

[3] = SA sensor chip used for 1a and 3a (footnote 1)

| Compound | IC50 (Concanavalin A (Con A) [1]; [3]) | RIP per Carbohydrate Ligand (Concanavalin A (Con A) [1]) | RIP per Glycomacromolecular Ligand (Concanavalin A (Con A) [1]) | RIP (Concanavalin A (Con A) [1]) | redispersion of Con A induced glyco-AuNP aggregates (Concanavalin A (Con A) [2]) | IC50 (Concanavalin A (Con A) [1]; SA sensor chip with αMeMan IC50 (5.17 ± 0.84) × 10^5 nM) | inhibition of Con A binding (Concanavalin A (Con A) [1]; negative control, four representative concentrations) |
| --- | --- | --- | --- | --- | --- | --- | --- |
| Man(2)-5-Gly(1)-EDS(3,4)-Cys(5)-N-ethylmaleimide [glycomacromolecule 1a] | 70 µM | 5 | 5 | 5 | – | – | – |
| CO[C@H]1O[C@H](CO)[C@@H](O)[C@H](O)[C@@H]1O [αMeMan, methyl-α-D-mannopyranoside] | 325 µM | 1 | 1 | 1 | redispersion of the aggregates | 517 µM | – |
| Man(2,4,6,8,10)-11-Gly(1)-EDS(3,5,7,9)-Cys(11)-N-ethylmaleimide [glycomacromolecule 3a] | – | 419 | 2096 | 2096 | – | – | – |
| OC[C@H]1OC(O)[C@H](O)[C@@H](O)[C@H]1O (stereo partly drawn) [D-(+)-galactose] | – | – | – | – | – | – | no inhibition |
